Holding throughout (experiment): NCI anticancer screen, dose series, 48 h
The subject of test [1] is 786-0.
The subject of test [2] is A498.
Test [3] deals with A549.
Test [4] concerns ACHN.
For test [5], the system named is HOP-62.
For test [6], the system named is Hs-578T.
Test [7] has as its system IGROV-1.
Test [8] relates to M14.
The test system of test [9] is MCF7.
Test [10] concerns Malme-3M.
For test [11], the system named is NCI-H460.
The test system of test [12] is NCI-H522.
In test [13] the test system is NCI/ADR-RES.
The test system of test [14] is RPMI-8226.
Test [15] concerns SK-OV-3.
For test [16], the system named is SNB-75.
Test [17] relates to SR.
In test [18] the test system is TK-10.
Test [19] concerns UACC-257.
The subject of test [20] is UO-31.

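Interpolation was linear, between the two tested concentrations surrounding the appropriate level; five concentrations were tested over 48 hours in 96-well plates. GI50 = concentration required for 50% inhibition of growth.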 The source made the active and inactive calls. Rule as the data show it: active = GI50 up to about 1.1 µM and inactive = higher.

Take `C1CCNCC1.Oc1ncnc2[nH]cc(CN3CCCCC3)c12`: the GI50 in [1] was 22.9 µM (inactive); in test [2], > 100 µM (inactive); in test [3], > 100 µM (inactive); in test [4], 98.4 µM (inactive); in [5], > 100 µM (inactive); in test [6], > 100 µM (inactive). Moreover, the GI50 was > 100 µM (inactive) in test [7]; > 100 µM (inactive) in test [8]; 28.8 µM (inactive) in test [9]; 64.9 µM (inactive) in test [10]; 16 µM (inactive) in test [11]; 86.3 µM (inactive) in test [12]. Also, the GI50 in [13] is > 100 µM (inactive); in [14] it was 22 µM (inactive); in test [15] it was > 100 µM (inactive); in test [16], 55.5 µM (inactive); in test [17], 37.7 µM (inactive); in test [18] it was 46 µM (inactive). For the same compound, the figures for the GI50 in test [19] and in test [20] were 21.5 µM (inactive) and 85.3 µM (inactive), respectively.
With `Cc1ccc(S(=O)(=O)N/N=C2\C(=O)Nc3cc(O)c(C(=O)O)cc32)cc1`, the GI50 in test [1], in [2], in [3], in test [4], in test [5] and in test [6] was > 100 µM (inactive) each time. Also, the GI50 in test [7], in [8], in test [9], in test [10], in test [11] and in test [12] was > 100 µM (inactive) each time. Besides, the GI50 in test [13], in test [14], in test [15], in test [16], in [17] and in test [18] was > 100 µM (inactive) in each case. The GI50 in test [19] and in [20] was > 100 µM (inactive) throughout.
For the compound `CCCCCCOc1ccc(C(=O)N(C)O)cc1`, the GI50 in test [1] was 12.4 µM (inactive); in test [2] it was 26.5 µM (inactive); in test [3] it was 12.1 µM (inactive); in test [4], 6.01 µM (inactive); in test [5], 11 µM (inactive); in test [6] it was 65.2 µM (inactive). Moreover, the GI50 is 11.5 µM (inactive) in test [7]; 12.6 µM (inactive) in test [8]; 28.9 µM (inactive) in test [9]; 14.1 µM (inactive) in [10]; 6.12 µM (inactive) in [11]; 9.86 µM (inactive) in [12]. In addition, the GI50 in test [13] is 10.1 µM (inactive); in test [14], 7.55 µM (inactive); in [15] it was 18.8 µM (inactive); in test [16], 27.3 µM (inactive); in [17] it was 6.35 µM (inactive); in test [18], 46.3 µM (inactive). Besides, the values for the GI50 in test [19] and in test [20] were 36.6 µM (inactive) and 9.48 µM (inactive), respectively.
As for `C=C1C(=O)OC2C1C(OC(=O)/C(C)=C/C)CC(O)(CCl)C1C(OC(C)=O)C=C(C)C21O` (centres undefined), the GI50 in [1] is 11.6 µM (inactive); in test [2] it was 21.8 µM (inactive); in test [3], 28.2 µM (inactive); in test [4], 8.97 µM (inactive); in test [5] it was 34.8 µM (inactive); in test [6] it was 61.9 µM (inactive). The GI50 was 14.4 µM (inactive) in [7]; 12.6 µM (inactive) in [8]; 6.56 µM (inactive) in test [9]; 3.34 µM (inactive) in test [10]; 20.8 µM (inactive) in [11]; 1.99 µM (inactive) in test [12]. In addition, the GI50 is 16.3 µM (inactive) in test [13]; 7.01 µM (inactive) in [14]; 37 µM (inactive) in test [15]; 21.8 µM (inactive) in test [16]; 3.8 µM (inactive) in test [17]; 13.8 µM (inactive) in test [18]. Besides, the GI50 in test [19] was 16.5 µM (inactive); in [20] it was 18.6 µM (inactive).
Regarding `CCCCC1CCCCCCc2[nH]c(/C=C3\N=C(c4ccc[nH]4)C=C3OC)cc21` (centres undefined), the GI50 in test [1] is < 0.01 µM (active); in test [2], 0.515 µM (active); in [3], < 0.0139 µM (active); in [4], < 0.0111 µM (active); in test [5], 0.0181 µM (active); in [6] it was 0.0331 µM (active). Moreover, the GI50 in [7] was < 0.0188 µM (active); in test [8], 0.0136 µM (active); in [9] it was < 0.0139 µM (active); in test [10] it was 0.0241 µM (active); in [11] it was < 0.01 µM (active); in test [12], < 0.016 µM (active). Besides, the GI50 is < 0.0169 µM (active) in [13]; < 0.01 µM (active) in test [14]; 0.326 µM (active) in test [15]; < 0.0306 µM (active) in [16]; < 0.01 µM (active) in [17]; 0.338 µM (active) in test [18]. Besides, the GI50 in test [19] is 0.13 µM (active); in [20] it was 0.0194 µM (active).
On to `CN(C)CCn1c(=O)c2ccc(NCCCN(C)CCCNc3ccc4c(=O)n(CCN(C)C)c(=O)n5c6ccccc6c(=O)c3c45)c3c(=O)c4ccccc4n(c1=O)c23`, for which the GI50 is < 0.01 µM (active) in [1]; 0.0571 µM (active) in [2]; < 0.01 µM (active) in test [3]; < 0.01 µM (active) in test [4]; < 0.0161 µM (active) in test [5]; 0.131 µM (active) in [6]. In addition, the GI50 in test [7] is < 0.01 µM (active); in test [8], 0.167 µM (active); in test [9], < 0.01 µM (active); in [10] it was 0.361 µM (active); in test [11], < 0.01 µM (active); in test [12], < 0.01 µM (active). Besides, the GI50 in [13] is 0.0339 µM (active); in test [14], < 0.01 µM (active); in test [15], 0.101 µM (active); in test [16], < 0.0117 µM (active); in [17], < 0.01 µM (active); in test [18], 0.0593 µM (active). Further, the GI50 in test [19] was 0.208 µM (active); in test [20], < 0.0285 µM (active).
With `C=C(C)c1cc(C(C)(C)C)cc(C(=C)C)c1S(C)(=O)=O`, the GI50 in [1], in test [2], in [3], in [4], in [5] and in test [6] was > 100 µM (inactive) throughout. The GI50 in test [7], in test [8], in test [9], in test [10], in test [11] and in [12] was > 100 µM (inactive) throughout. For the same compound, the GI50 in test [13], in test [14], in test [15], in test [16], in [17] and in [18] was > 100 µM (inactive) each time. Moreover, in test [20], the GI50 was > 100 µM (inactive).

Values taken from ChEMBL document CHEMBL1201862, “PubChem BioAssay data set” (2004).
